In US6277847A, “Herbicidal isoindolinonyl-and 3,4-dihydroisoquinolonyl-substituted heterocycles” (FMC Corporation, priority 2000, dated 2001):

Columns and labels:
Assay type in all cases: in vivo
[1] = tested on: soybean (Glycine max -- var. Winchester); test: pre-emergence herbicidal activity, soybean; conditions: 1 kg/Ha, about fourteen days, read-out: pre-emergence herbicidal activity (% control) SOY
Method in brief: (§1)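 Seeds sown in soil flats and sprayed pre-emergence with a water/acetone solution of test compound at 1 kg/Ha; untreated controls kept alongside. Phytotoxicity scored after about fourteen days as percent control, 0 being no effect and 100 complete control.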

[2] = tested on: wheat (Triticum aestivum var. Lew); test: pre-emergence herbicidal activity, wheat; conditions: 1 kg/Ha, about fourteen days, read-out: pre-emergence herbicidal activity (% control) WHT
Method in brief: as §1

[3] = tested on: field corn (Zea mays var. Pioneer 3732); test: pre-emergence herbicidal activity, corn; conditions: 1 kg/Ha, about fourteen days, read-out: pre-emergence herbicidal activity (% control) CRN
Method in brief: as §1

[4] = tested on: velvetleaf (Abutilon theophrasti); test: pre-emergence herbicidal activity, velvetleaf; conditions: 1 kg/Ha, about fourteen days, read-out: pre-emergence herbicidal activity (% control) ABUTH
Method in brief: as §1

[5] = tested on: morningglory (Ipomea lacunosa or Ipomea hederacea); test: pre-emergence herbicidal activity, morningglory; conditions: Ipomoea, 1 kg/Ha, about fourteen days, read-out: pre-emergence herbicidal activity (% control) IPOSS
Method in brief: as §1

[6] = tested on: common chickweed (Stellaria media); test: pre-emergence herbicidal activity, chickweed; conditions: 1 kg/Ha, about fourteen days, read-out: pre-emergence herbicidal activity (% control) STEME
Method in brief: as §1

[7] = tested on: common cocklebur (Xanthium strumarium L.); test: pre-emergence herbicidal activity, cocklebur; conditions: 1 kg/Ha, about fourteen days, read-out: pre-emergence herbicidal activity (% control) XANPE
Method in brief: as §1

[8] = tested on: blackgrass (Aloepecurus myosuroides); test: pre-emergence herbicidal activity, blackgrass; conditions: Alopecurus myosuroides, 1 kg/Ha, about fourteen days, read-out: pre-emergence herbicidal activity (% control) ALOMY
Method in brief: as §1

[9] = tested on: green foxtail (Setaria viridis); test: pre-emergence herbicidal activity, green foxtail; conditions: 1 kg/Ha, about fourteen days, read-out: pre-emergence herbicidal activity (% control) SETVI
Method in brief: as §1

[10] = tested on: Johnsongrass (Sorghum halepense); test: pre-emergence herbicidal activity, johnsongrass; conditions: 1 kg/Ha, about fourteen days, read-out: pre-emergence herbicidal activity (% control) SORHA
Method in brief: as §1

[11] = tested on: soybean (Glycine max -- var. Winchester); test: post-emergence herbicidal activity, soybean; conditions: 1 Kg/Ha, about fourteen days, read-out: post-emergence herbicidal activity (% control) SOY
Method in brief: (§2)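 Percent control (0–100) was rated about fourteen days after spraying of emerged, germinated plants in flats with compound dissolved in water/acetone at 1 Kg/Ha.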

[12] = tested on: wheat (Triticum aestivum var. Lew); test: post-emergence herbicidal activity, wheat; conditions: 1 Kg/Ha, about fourteen days, read-out: post-emergence herbicidal activity (% control) WHT
Method in brief: as §2

[13] = tested on: field corn (Zea mays var. Pioneer 3732); test: post-emergence herbicidal activity, corn; conditions: 1 Kg/Ha, about fourteen days, read-out: post-emergence herbicidal activity (% control) CRN
Method in brief: as §2

[14] = tested on: velvetleaf (Abutilon theophrasti); test: post-emergence herbicidal activity, velvetleaf; conditions: 1 Kg/Ha, about fourteen days, read-out: post-emergence herbicidal activity (% control) ABUTH
Method in brief: as §2

[15] = tested on: morningglory (Ipomea lacunosa or Ipomea hederacea); test: post-emergence herbicidal activity, morningglory; conditions: Ipomoea, 1 Kg/Ha, about fourteen days, read-out: post-emergence herbicidal activity (% control) IPOSS
Method in brief: as §2

[16] = tested on: common chickweed (Stellaria media); test: post-emergence herbicidal activity, chickweed; conditions: 1 Kg/Ha, about fourteen days, read-out: post-emergence herbicidal activity (% control) STEME
Method in brief: as §2

[17] = tested on: common cocklebur (Xanthium strumarium L.); test: post-emergence herbicidal activity, cocklebur; conditions: 1 Kg/Ha, about fourteen days, read-out: post-emergence herbicidal activity (% control) XANPE
Method in brief: as §2

[18] = tested on: blackgrass (Aloepecurus myosuroides); test: post-emergence herbicidal activity, blackgrass; conditions: Alopecurus myosuroides, 1 Kg/Ha, about fourteen days, read-out: post-emergence herbicidal activity (% control) ALOMY
Description: This example sets forth the methods of herbicidal testing conducted on the specific compounds set forth below. Specifically, the compounds referenced below were tested for pre- and post-emergence herbicidal activity using a variety of crops and weeds. The test plants include, but are not limited to, soybean (Glycine max -- var. Winchester), field corn (Zea mays var. Pioneer 3732), wheat (Triticum aestivum var. Lew), morningglory (Ipomea lacunosa or Ipomea hederacea), velvetleaf (Abutilon theophrasti), green foxtail (Setaria viridis), Johnsongrass (Sorghum halepense), blackgrass (Aloepecurus myosuroides), common chickweed (Stellaria media), and common cocklebur (Xanthium strumarium L.).
In the post-emergence test, seeds of the plant species named above were planted in flats containing the appropriate soil mixture where they were maintained to allow the seeds to germinate. When the plants in these flats reached the proper stage of growth, flats for the pre-emergence tests were planted in a like manner. The flats containing the post-emergence and pre-emergence test plant species were then sprayed with an appropriately concentrated water/acetone solution of test compound. Once treated the flats were maintained, along with untreated controls, for about fourteen days. All treated plants were then examined for phytotoxicity, which was expressed as percent control where 0 is no effect and 100 is complete control. Effective rates of application for the compounds of the present invention range from 0.001 to 3 kg/ha, more likely from […] to 1 Kg/ha.
Herbicidal activity data at selected application rates are in Tables 4 and 5. The test compounds are identified by numbers correspond to those in Table 1.
SOY is soybean, WHT is wheat, CRN is corn, ABUTH is velvetleaf, IPOSS is
morningglory, STEME is chickweed, XANPE is cocklebur, ALOMY is blackgrass,
Rate of application of test compound is 1 Kg/Ha. The definitions as shown under Table 4 apply to Table 5.

[19] = tested on: green foxtail (Setaria viridis); test: post-emergence herbicidal activity, green foxtail; conditions: 1 Kg/Ha, about fourteen days, read-out: post-emergence herbicidal activity (% control) SETVI
Method in brief: as §2

[20] = tested on: Johnsongrass (Sorghum halepense); test: post-emergence herbicidal activity, johnsongrass; conditions: 1 Kg/Ha, about fourteen days, read-out: post-emergence herbicidal activity (% control) SORHA
Method in brief: as §2

## CC(C)N1Cc2c(ccc(Cl)c2-n2c(=O)cc(C(F)(F)F)n(C)c2=O)C1=O [Compound 1]
[1]
  activity at 1000 g/ha: 90%
[2]
  activity at 1000 g/ha: 80%
[3]
  activity at 1000 g/ha: 95%
[4]
  activity at 1000 g/ha: 100%
[5]
  activity at 1000 g/ha: 100%
[6]
  activity at 1000 g/ha: 90%
[7]
  activity at 1000 g/ha: 70%
[8]
  activity at 1000 g/ha: 80%
[9]
  activity at 1000 g/ha: 100%
[10]
  activity at 1000 g/ha: 90%
[11]
  activity at 1000 g/ha: 95%
[12]
  activity at 1000 g/ha: 70%
[13]
  activity at 1000 g/ha: 90%
[14]
  activity at 1000 g/ha: 100%
[15]
  activity at 1000 g/ha: 70%
[16]
  activity at 1000 g/ha: 50%
[17]
  activity at 1000 g/ha: 60%
[18]
  activity at 1000 g/ha: 75%
[19]
  activity at 1000 g/ha: 80%
[20]
  activity at 1000 g/ha: 100%

## CC(C)N1Cc2c(-n3c(=O)cc(C(F)(F)F)n(C)c3=O)ccc(Cl)c2C1=O [Compound 3, 3-[7-chloro-2-(1-methylethyl)isoindolin-1-on-4-yl]-1-methyl-6-trifluoromethyl-2,4(1H,3H)-pyrimidinedione]
[1]
  activity at 1000 g/ha: 100%
[2]
  activity at 1000 g/ha: 100%
[3]
  activity at 1000 g/ha: 100%
[4]
  activity at 1000 g/ha: 100%
[5]
  activity at 1000 g/ha: 100%
[6]
  activity at 1000 g/ha: 100%
[7]
  activity at 1000 g/ha: 100%
[8]
  activity at 1000 g/ha: 100%
[9]
  activity at 1000 g/ha: 100%
[10]
  activity at 1000 g/ha: 100%
[11]
  activity at 1000 g/ha: 95%
[12]
  activity at 1000 g/ha: 100%
[13]
  activity at 1000 g/ha: 100%
[14]
  activity at 1000 g/ha: 100%
[15]
  activity at 1000 g/ha: 100%
[16]
  activity at 1000 g/ha: 100%
[17]
  activity at 1000 g/ha: 100%
[18]
  activity at 1000 g/ha: 100%
[19]
  activity at 1000 g/ha: 100%
[20]
  activity at 1000 g/ha: 100%

## CC(C)N1Cc2c(c(Cl)cc(Cl)c2-n2c(=O)cc(C(F)(F)F)n(C)c2=O)C1=O [Compound 4]
[1]
  activity at 1000 g/ha: 100%
[2]
  activity at 1000 g/ha: 100%
[3]
  activity at 1000 g/ha: 100%
[4]
  activity at 1000 g/ha: 100%
[5]
  activity at 1000 g/ha: 100%
[6]
  activity at 1000 g/ha: 100%
[7]
  activity at 1000 g/ha: 100%
[8]
  activity at 1000 g/ha: 100%
[9]
  activity at 1000 g/ha: 100%
[10]
  activity at 1000 g/ha: 100%
[11]
  activity at 1000 g/ha: 100%
[12]
  activity at 1000 g/ha: 100%
[13]
  activity at 1000 g/ha: 100%
[14]
  activity at 1000 g/ha: 100%
[15]
  activity at 1000 g/ha: 100%
[16]
  activity at 1000 g/ha: 100%
[17]
  activity at 1000 g/ha: 100%
[18]
  activity at 1000 g/ha: 100%
[19]
  activity at 1000 g/ha: 100%
[20]
  activity at 1000 g/ha: 100%

## CCN1Cc2c(c(Cl)cc(Cl)c2-n2c(=O)cc(C(F)(F)F)n(C)c2=O)C1=O [Compound 5]
[1]
  activity at 1000 g/ha: 100%
[2]
  activity at 1000 g/ha: 100%
[3]
  activity at 1000 g/ha: 100%
[4]
  activity at 1000 g/ha: 100%
[5]
  activity at 1000 g/ha: 100%
[6]
  activity at 1000 g/ha: 100%
[7]
  activity at 1000 g/ha: 100%
[8]
  activity at 1000 g/ha: 100%
[9]
  activity at 1000 g/ha: 100%
[10]
  activity at 1000 g/ha: 100%
[11]
  activity at 1000 g/ha: 95%
[12]
  activity at 1000 g/ha: 100%
[13]
  activity at 1000 g/ha: 100%
[14]
  activity at 1000 g/ha: 100%
[15]
  activity at 1000 g/ha: 100%
[16]
  activity at 1000 g/ha: 100%
[17]
  activity at 1000 g/ha: 100%
[18]
  activity at 1000 g/ha: 100%
[19]
  activity at 1000 g/ha: 100%
[20]
  activity at 1000 g/ha: 100%
